Converted amounts (≈) assume the structure as drawn.
Experiments:
Type in all cases: cell-based
S. aureus = test: MIC broth microdilution, S. aureus; settings: Staphylococcus aureus, 20 hours of incubation
Protocol: (§1) Minimal inhibitory concentrations were determined by the broth microdilution method in 96-wells plate format following the Clinical and Laboratory Standards Institute (CLSI) guidelines given in “Methods for Dilution Antimicrobial Susceptibility Tests for Bacteria That Grow Aerobically, Approved Standard, 10th Edition, CLSI document M07-A10, Wayne, PA: Clinical and Laboratory Standards Institute, USA, 2015” and European Committee on Antimicrobial Susceptibility Testing (EUCAST) recommendations given in “The European Committee on Antimicrobial Susceptibility Testing, Breakpoint tables for interpretation of MICs and zone diameters, Version 5.0, 2015”. All exemplified compounds were tested on several Gram-positive (S. aureus, methicillin-resistant Staphylococcus aureus (MRSA), methicillin-resistant
(§2) Staphylococcus schleiferi subspecies coagulans, methicillin-resistant Staphylococcus pseudintermedius
(§3) (S-48, S-84, S-35, S-52, S-40 and S-51), Streptococcus agalactiae and Enterococcus faecalis) and Gram-negative bacteria (E. coli, Salmonella Alachua and Pseudomonas aeruginosa).
(§4) The MICs were visually determined as the lowest compound concentration inhibiting bacterial growth after 20 hours of incubation time. […] MIC values are represented in Table 2.

HepG2 (ATCC) cell line = test: Cytotoxicity, metabolic cell activity (CellTiter 96 AQueous One), HepG2; settings: two independent experiments
Protocol: (§5) Cytotoxicity was assessed in assay measuring metabolic cell activity performed on HepG2 (ATCC) and HUVEC (ATCC) cell lines according to the protocol of CellTiter 96® AQueous One Solution Cell Proliferation Assay 2018, Promega, USA, 2001. The method involved absorbance measurements after the treatment of cells with compounds at concentrations 1 μM and 50 μM.
(§6) The results are given as the mean percentage of metabolic activity of treated cells from two independent experiments and are represented in Table 3.

[1] = tested on: methicillin-resistant Staphylococcus pseudintermedius S-51; test: MIC broth microdilution, MRSP S-51; settings: 20 hours of incubation
Protocol: as §1, §2, §3, §4

[2] = tested on: methicillin-resistant Staphylococcus pseudintermedius S-52; test: MIC broth microdilution, MRSP S-52; settings: 20 hours of incubation
Protocol: as §1, §2, §3, §4

HUVEC (ATCC) cell line = test: Cytotoxicity, metabolic cell activity (CellTiter 96 AQueous One), HUVEC; settings: two independent experiments
Protocol: as §5, §6

E. faecalis DRK 057 = test: MIC broth microdilution, E. faecalis; settings: Enterococcus faecalis, DRK057, 20 hours of incubation
Protocol: as §1, §2, §3, §4

[3] = tested on: methicillin-resistant Staphylococcus pseudintermedius S-84; test: MIC broth microdilution, MRSP S-84; settings: 20 hours of incubation
Protocol: as §1, §2, §3, §4

P. aeruginosa RDK 184 = test: MIC broth microdilution, P. aeruginosa; settings: Pseudomonas aeruginosa, RDK184, 20 hours of incubation
Protocol: as §1, §2, §3, §4

[4] = tested on: methicillin-resistant Staphylococcus pseudintermedius S-48; test: MIC broth microdilution, MRSP S-48; settings: 20 hours of incubation
Protocol: as §1, §2, §3, §4

C. jejuni RDK-135 = test: MIC broth microdilution, C. jejuni; settings: Campylobacter jejuni, RDK135, 20 hours of incubation
Protocol: as §1, §4

[5] = tested on: methicillin-resistant Staphylococcus pseudintermedius S-40; test: MIC broth microdilution, MRSP S-40; settings: 20 hours of incubation
Protocol: as §1, §2, §3, §4

[6] = tested on: methicillin-resistant Staphylococcus pseudintermedius S-35; test: MIC broth microdilution, MRSP S-35; settings: 20 hours of incubation
Protocol: as §1, §2, §3, §4

[7] = tested on: methicillin-resistant Staphylococcus schleiferi subspecies coagulans; test: MIC broth microdilution, MRSS; settings: 20 hours of incubation
Protocol: as §1, §2, §3, §4

## COc1ccc2nccc(CCN3CCC(NCc4ccc(Cl)cc4)CC3)c2n1 [Compound C6, N-(4-chlorobenzyl)-1-(2-(6-methoxy-1,5-naphthyridin-4-yl)ethyl)piperidin-4-amine]
S. aureus
  MIC: 0.125 µg/mL (≈ 0.304 µM)
HepG2 (ATCC) cell line; HepG2, compound 1 μM
  mean percentage of metabolic activity of treated cells, HepG2 1 μM: 84.5 ± 11.1%
HepG2 (ATCC) cell line; HepG2, compound 50 μM
  mean percentage of metabolic activity of treated cells, HepG2 50 μM: 0.9 ± 0.1%
[1]
  MIC: 0.25 µg/mL (≈ 0.608 µM)
[2]
  MIC: 0.5 µg/mL (≈ 1.22 µM)
HUVEC (ATCC) cell line; compound 1 μM
  mean percentage of metabolic activity of treated cells, HUVEC 1 μM: 86.1 ± 17.1%
HUVEC (ATCC) cell line; compound 50 μM
  mean percentage of metabolic activity of treated cells, HUVEC 50 μM: −0.6 ± 0.4%
E. faecalis DRK 057
  MIC: 1 µg/mL (≈ 2.43 µM)
[3]
  MIC: 0.25 µg/mL (≈ 0.608 µM)
P. aeruginosa RDK 184
  MIC: > 128 µg/mL
[4]
  MIC: 0.25 µg/mL (≈ 0.608 µM)
C. jejuni RDK-135
  MIC: 2 µg/mL (≈ 4.87 µM)
[5]
  MIC: 0.25 µg/mL (≈ 0.608 µM)
[6]
  MIC: 0.25 µg/mL (≈ 0.608 µM)
[7]
  MIC: ≤ 0.0078 µg/mL

From patent US20250197394A1, “ANTIBACTERIALS BASED ON MONOCYCLIC FRAGMENTS COUPLED TO AMINOPIPERIDINE NAPHTHYRIDINE SCAFFOLD” (UNIVERZA V LJUBLJANI, priority 2019, published 2025)
